# Measurements from ChEMBL document CHEMBL1137192, “Synthesis and neurotrophic activity of nonimmunosuppressant cyclosporin A derivatives” (Bioorg Med Chem Lett, 2004).
# How the values were obtained:
# T-cell = experiment: Inhibition of T-cell proliferation; format: functional; conditions: read-out: ED50 (the source's name)
# [1] = target: Peptidyl-prolyl cis-trans isomerase A (Homo sapiens, UniProt P62937); experiment: Inhibition of cyclophilin A rotamase
# Peptidyl-prolyl cis-trans isomerase A, sequence (P62937 whole entry): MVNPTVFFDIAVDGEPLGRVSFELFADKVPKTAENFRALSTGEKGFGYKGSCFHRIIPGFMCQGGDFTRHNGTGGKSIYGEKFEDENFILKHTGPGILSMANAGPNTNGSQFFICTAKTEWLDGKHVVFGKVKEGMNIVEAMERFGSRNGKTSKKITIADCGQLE
Ki [1] [nM],SMILES,EC50 (T-cell) [nM]
–,C=C1NC(=O)[C@H](C)NC(=O)[C@H](CC(C)C)N(C)C(=O)[C@H](C(C)C)NC(=O)[C@H](CC(C)C)N(C)C(=O)CN(C)C(=O)[C@H](CC)NC(=O)[C@H]([C@H](O)[C@H](C)C/C=C/C)N(C)C(=O)[C@H](C(C)C)N(C)C(=O)[C@H](CC(C)C)N(C)C(=O)[C@H](CC(C)C)N(C)C1=O,> 10000
–,C/C=C/C[C@@H](C)[C@@H](O)[C@H]1C(=O)N[C@@H](CC)C(=O)N(C)CC(=O)N(C)[C@@H](CC)C(=O)N[C@@H](C(C)C)C(=O)N(C)[C@@H](CC(C)C)C(=O)N[C@@H](C)C(=O)N[C@H](C)C(=O)N(C)[C@@H](CC(C)C)C(=O)N(C)[C@@H](CC(C)C)C(=O)N(C)[C@@H](C(C)C)C(=O)N1C,> 10000
–,CCCC[C@@H](C)[C@@H](O)[C@H]1C(=O)N[C@@H](CC)C(=O)N(C)CC(=O)N(C)[C@@H](CC(C)C)C(=O)N[C@@H](C(C)C)C(=O)N(C)[C@@H](CC(C)C)C(=O)N[C@@H](C)C(=O)N[C@H](C)C(=O)N(C)[C@@H](CC(C)C)C(=O)N(C)[C@@H](CC(C)C)C(=O)N(C)[C@@H](C(C)C)C(=O)N1C,130
18,C/C=C/C[C@@H](C)C(O)[C@H]1C(=O)N[C@@H](CC)C(=O)N(C)CC(=O)N(C)[C@H](CC(C)C)C(=O)N[C@](C)(C(C)O)C(=O)N(C)[C@@H](CC(C)C)C(=O)N[C@@H](C)C(=O)N[C@H](C)C(=O)N(C)[C@H](CC(C)C)C(=O)N(C)[C@@H](CC(C)C)C(=O)N(C)[C@@H](C(C)C)C(=O)N1C (stereo not given in full),> 10000
